Measurements taken from patent US20260139245A1, “METHODS AND USES OF RIBONUCLEASE INHIBITORS” (Sequrna AB, priority 2022, published 2026).
Where “and” joins values, the source holds several entries; their conditions need not be identical. Equal entries are not always repeated.

System: RNase
Assay: Smart-seq2 (SS2) cDNA library generation and sequencing from 100 pg mouse RNA with the agent replacing recombinant RNase inhibitor in lysis buffer
Type: biochemical
Conditions: for sustained RNA stability during cDNA library generation: SS2 protocol for bulk RNA; for quality of the sequencing data compared with standard Smart-seq2 utilizing recombinant RNAse inhibitor (TaKaRa): agent used in its optimal range; for optimal range of alternative inhibitor (cDNA size distribution and yield similar to standard Smart-seq2): concentration in 1× Smart-seq2 lysis buffer, 100 pg mouse RNA
Procedure: We started by systematically testing ranges of PVSA concentrations in the scRNAseq protocol Smart-seq2 (SS2) (5), which provides full-length read coverage across transcripts, enabling evaluation of polymerase processivity. We prepared lysis buffer containing 0-600 μg/mL of PVSA (resulting in 0-270 μg/mL in the following first-strand reaction) and 100 pg spiked mouse RNA, performed SS2 library amplification, and evaluated resulting cDNA by capillary electrophoresis (Methods).
To examine the information yield and quality of PVSA-generated RNA-seq libraries, we sequenced SS2 libraries generated in presence of PVSA or RI (TaKaRa) and downsampled the resulting reads to allow even comparison (Methods). We analyzed library quality metrics in terms of genomic and transcriptomic mappability, base substitution rates, insertion and deletions (indels), likelihood of mismatches within the read, and average indel length.
Bulk RNA was extracted from cultured mouse tail tip fibroblasts using TRIzol (Invitrogen). For all bulk RNAseq experiments 100 pg of RNA was used as input, if is not otherwise specified, and was added to 96-well plates containing either Smart-seq2 or Smart-seq3 standard lysis buffer or lysis buffer with varying concentrations of polyvinyl sulfonic acid (Merck, cat no. 278424). Smart-seq2 lysis buffer composition was 0.1% Triton X-100, 2.5 mM dNTP/each, […] oligo-dT (5′-[…]30VN-3′), and 4 U recombinant inhibitor (TaKaRa) or PVSA of the concentration specified for each condition; total buffer volume 4.5 ul. Smart-seq3 lysis buffer composition was 0.1% Triton X-100, 10% PEG 8000, 1 mM dNTP/each, and 1 uM Smart-seq3 oligo-dT (5′-biotin-[…] T30VN-3′), and 1 U recombinant inhibitor (TaKaRa) or PVSA of the concentration specified for each condition; total buffer volume 2 ul. For single-cell experiments, cultured HEK293FT, spleen, or liver cells in 0.5% BSA in PBS were sorted into 96 well plates containing lysis buffer using an SH800S (Sony). Single cell sorted plates were briefly centrifuged and kept at −80° C. until they were further processed. Plates containing lysis buffer and input material were then processed according to the Smart seq2 and Smart-seq3 protocols (Picelli, S. et al., 2014 and Hagemann-Jensen, M. et al., 2020), except without addition of recombinant inhibitor in the first-strand reaction mix in reactions where PVSA was used. Smart-seq2 cDNA library generation: Cell were lysed at 72° C. for 3 min in a Bioer Life ECO thermocycler and placed on ice prior to first-strand synthesis. The following reverse transcriptase reaction contained 1× Superscript II buffer, 5 mM DTT, 1M betaine, 10 mM MgCl2, 1 uM Smart-seq2 TSO (5′-[…]rGrG+G-3′), 10 U Superscript II, and 10 U recombinant inhibitor (TaKaRa) for samples containing biological inhibitor; total reaction volume 10 ul. RT thermocycles were 42° C. for 90 min, followed by 10 cycles of 42° C. for 2 min and 50° C. for 2 min. The following cDNA amplification reaction contained 1× KAPA HiFi HotStart Ready Mix and 80 nM ISPCR primers (5′-[…]-3′); total reaction volume 25 ul. Thermocycles for Smart-seq2 cDNA amplification were 98° C. for 3 min, followed by either 18 (bulk), 20 (HEK), 21 (liver) or 22 (spleen) cycles of 98° C. for 20 sec, 67° C. for 15 sec, and 72° C. for 6 min, followed by a final incubation at 72° C. for 5 min. Smart-seq3 cDNA library generation: Cell were lysed at 72° C. for 10 min and placed on ice prior to first-strand synthesis.

Molecule: Sodium alginate
- sustained RNA stability during cDNA library generation: did
- quality of the sequencing data compared with standard Smart-seq2 utilizing recombinant RNAse inhibitor (TaKaRa): on par
- optimal range of alternative inhibitor (cDNA size distribution and yield similar to standard Smart-seq2): 200 to 400 µg/mL and 100 to 400 µg/mL

Molecule: Fucoidan
- quality of the sequencing data compared with standard Smart-seq2 utilizing recombinant RNAse inhibitor (TaKaRa): on par
- optimal range of alternative inhibitor (cDNA size distribution and yield similar to standard Smart-seq2): 5 to 20 µg/mL

Molecule: Dextran sulfate
- sustained RNA stability during cDNA library generation: did
- quality of the sequencing data compared with standard Smart-seq2 utilizing recombinant RNAse inhibitor (TaKaRa): on par
- optimal range of alternative inhibitor (cDNA size distribution and yield similar to standard Smart-seq2): 1 to 2.5 µg/mL and 1.5 to 2.5 µg/mL

Molecule: O=S(=O)(O)CCN1CCOCC1 [MES, 2-(N-morpholino)ethanesulfonic acid]
- sustained RNA stability during cDNA library generation: did
- optimal concentration of alternative inhibitor (Smart-seq2 lysis buffer, 100 pg mouse fibroblast RNA): 6 to 8 mg/mL
- quality of the sequencing data compared with standard Smart-seq2 utilizing recombinant RNAse inhibitor (TaKaRa): on par
- optimal range of alternative inhibitor (cDNA size distribution and yield similar to standard Smart-seq2): 4000 to 12000 µg/mL

Molecule: C=CS(=O)(=O)O [VSA, Vinylsulfonic acid]
- sustained RNA stability during cDNA library generation: did
- quality of the sequencing data compared with standard Smart-seq2 utilizing recombinant RNAse inhibitor (TaKaRa): on par
- optimal range of alternative inhibitor (cDNA size distribution and yield similar to standard Smart-seq2): 500 to 2000 µg/mL

Molecule: C=CP(=O)(O)O [VPA, vinylphosphonic acid, reference compound]
- sustained RNA stability during cDNA library generation: did not sustain RNA stability during cDNA library generation

Molecule: Heparin [reference compound]
- sustained RNA stability during cDNA library generation: did
- quality of the sequencing data compared with standard Smart-seq2 utilizing recombinant RNAse inhibitor (TaKaRa): on par
- optimal range of alternative inhibitor (cDNA size distribution and yield similar to standard Smart-seq2): 2 to 10 µg/mL
